Measured values taken from US20080249091A1, “Indoles Useful in the Treatment of Inflammation” (priority 2005, published 2008).

The molecules below were run against T1, mPGES-1 (Homo sapiens, UniProt O14684) (assay: mPGES-1 assay: conversion of PGH2 to PGE2, HPLC analysis). Conditions: mPGES-1 expressed in E. coli; 25 min preincubation with inhibitor at room temperature; PGH2 substrate 60 seconds; read-out: IC50 values (inhibition of mPGES-1).
T1 construct: made in house; host or cells: E. coli (membrane fraction)
T1 sequence (O14684 1-152): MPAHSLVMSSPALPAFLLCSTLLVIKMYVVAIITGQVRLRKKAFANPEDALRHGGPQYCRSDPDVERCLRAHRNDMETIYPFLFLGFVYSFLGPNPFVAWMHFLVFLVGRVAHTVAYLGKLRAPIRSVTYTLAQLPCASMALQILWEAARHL
Format: biochemical
Protocol: In the assay mPGES-1 catalyses the reaction where the substrate PGH2 is converted to PGE2. mPGES-1 is expressed in E. coli and the membrane fraction is dissolved in 20 mM NaPi-buffer pH 8.0 and stored at −80° C. In the assay mPGES-1 is dissolved in 0.1M KPi-buffer pH 7.35 with 2.5 mM glutathione. The stop solution consists of H2O/MeCN (7/3), containing FeCl2 (25 mM) and HCl (0.15 M). The assay is performed at room temperature in 96-well plates. Analysis of the amount of PGE2 is performed with reversed phase HPLC (Waters 2795 equipped with a 3.9×150 mm C18 column). The mobile phase consists of H2O/MeCN (7/3), containing TFA (0.056%), and absorbance is measured at 195 nm with a Waters 2487 UV-detector.
The following is added chronologically to each well: • 1. 100 μL mPGES-1 in KPi-buffer with glutathione. Total protein concentration: 0.02 mg/mL. • 2. 1 μL inhibitor in DMSO. Incubation of the plate at room temperature for 25 minutes. • 3. 4 μL of a 0.25 mM PGH2 solution. Incubation of the plate at room temperature for 60 seconds. • 4. 100 μL stop solution. • 180 μL per sample is analyzed with HPLC.

| Structure (SMILES) | IC50 [nM] |
| --- | --- |
| O=C(c1ccc(Cl)cc1)c1ccc2c(c1)c(Cl)c(C(=O)O)n2-c1ccc(OC2CCCC2)cc1 [Example 40, 3-Chloro-5-(4-chlorobenzoyl)-1-(4-cyclopentyloxyphenyl)indole-2-carboxylic acid] | 610 |
| CC(C)Oc1ccc(-n2c(C(=O)O)cc3cc(Oc4ccc(Cl)cc4)ccc32)cc1 [Example 10, 5-(4-Chlorophenoxy)-1-(4-isopropoxyphenyl)indole-2-carboxylic acid] | 240 |
| CC(C)Oc1ccc(-n2c(C(=O)O)cc3cc(Oc4cccc(OC(C)C)c4)ccc32)cc1 [Example 1, 5-(3-Isopropoxyphenoxy)-1-(4-isopropoxyphenyl)indole-2-carboxylic acid] | 430 |
| O=C(O)c1cc2cc(Oc3ccc(C4CCCCC4)cc3)ccc2n1-c1ccc(OC2CC2)cc1 [Example 21, 5-(4-Cyclohexylphenoxy)-1-(4-cyclopropoxyphenyl)indole-2-carboxylic acid] | 75 |
| CC(C)Oc1ccc(-n2c(C(=O)O)cc3cc(Oc4cnc5ccccc5c4)ccc32)cc1 [Example 13, 1-(4-Isopropoxyphenyl)-5-(quinolin-3-yloxy)indole-2-carboxylic acid] | 3700 |
